Results reported in patent US11576914B2, “Drug for treating or preventing disorder caused by TGF-β signaling, and application thereof” (THE DOSHISHA, priority 2017, dated 2023).

Assays:
corneal endothelium = assay: Histological analysis of the corneal endothelium after instillation; assay type: in vivo
Description: Rabbits were euthanized, and then their eyes were removed and histologically analyzed. Expression of markers related to corneal endothelial functions was confirmed by immunostaining. The sclerocornea fragments were fixed with 0.5% paraformaldehyde and then blocked with 1% bovine serum albumin. As primary antibodies, ZO-1 antibody (Life Technologies) and N-cadherin antibody (BD Biosciences), which are indicators of the barrier function of corneal endothelial cells, and Na^+/K^+-ATPase antibody (MILLIPORE), which is an indicator of pump functions, were added, followed by standing at 4° C. overnight. […] Further, nuclear staining was performed using DAPI (Dojindo). To observe the cell morphology, actin was stained using Phalloidin (Life Technologies). The stained sclerocornea fragments were mounted in slide glasses and observed using a confocal fluorescence microscope (TCS SPE, Leica).
In addition, rabbits were euthanized, and then their eyes were removed. To assess cell death, the sclerocornea fragments were stained with Annexin V (Zymed Laboratories) and PI (Zymed Laboratories), fixed with 0.5% paraformaldehyde, and nuclear stained with DAPI (Dojindo). The stained sclerocornea fragments were mounted in slide glass and observed using a confocal fluorescence microscope (TCS SPE, Leica). Staurosporine (10 μM, Merck Millipore) was administered into the anterior chamber of a rabbit eyeball, and after 24 hours, it was used as a positive control.

[1] = system: cleaved caspase-3 and PARP; assay: Western blot of caspase 3 and PARP in iFECD stimulated with TGF-β2; assay type: cell-based, human; settings: 0.1 μM
Experimental: The medium was removed from the culture dish of cultured disease model cells, and the disease model cells were supplemented with 1×PBS (−) that was preheated to 37° C., followed by washing. This operation was repeated twice. The cells were supplemented with 1×PBS (−) again and incubated for 5 minutes at 37° C. (5% CO2). After the PBS (−) was removed, the cells were supplemented with 0.05% Trypsin-EDTA (nacalai tesque, 32778-34) and incubated for 5 minutes at 37° C. (5% CO2). The cells were then suspended in a medium, and collected by centrifugation at 1500 rpm for 3 minutes. Medium: DMEM (nacalai tesque, 08456-36)+10% FBS (Biowest, S1820-500)+1% P/S (nacalai tesque, 26252-94).
The Fuchs' endothelial corneal dystrophy patient-derived immortalized corneal endothelial cells were seeded in a 6-well plate at a rate of 1.5×10^5 cells per well and cultured at 37° C. (5% CO2) for 48 hours. DMEM+10% FBS+1% P/S was used as the medium. After 48 hours, the medium was removed, and SB203580 (Cayman, 13067), PH-797804 (Selleck Chemicals, S2726), VX-702 (Selleck Chemicals, 56005) and AKP-001 were added to DMEM+2% FBS+1% P/S so that all the final concentration was 0.1 μM, followed by culturing as 24-hour pretreatment.
After 24 hours, the medium was removed, and SB203580 (Cayman, 13067), PH-797804 (Selleck Chemicals, S2726), VX-702 (Selleck Chemicals, 56005) and AKP-001, together with 100 ng/ml recombinant human TGF-β2 (R & D systems, RND302-B2-002), were added to DMEM+2% FBS+1% P/S so that all the final concentration was 0.1 μM, followed by culturing for 24 hours. After 24 hours, the protein was subjected to Western blotting according to the following procedure to evaluate the effect on apoptosis.
The medium was collected on ice to collect free and dead cells as well. The solution obtained from washing the cells twice with 1×PBS (−) was also collected, followed by centrifugation of 800 g at 4° C. for 5 minutes. The supernatant was discarded to obtain precipitates. The washed cells were supplemented with a protein extraction buffer (RIPA; 50 mM Tris-HCl (pH 7.4), 150 mM NaCl, 1 mM EDTA, 0.1% SDS, 0.5% DOC, 1% NP-40) on ice to extract proteins. The precipitates from centrifuging the free and dead cells were also subsequently suspended together for extraction. The collected solution was pulverized three times for 30 seconds in cold water with a sonication device (BIORUPTOR, TOSHO DENKI) and centrifuged for 10 min at 4° C. at 15000 rpm to collect the supernatant of proteins.
Eight μg of the extracted protein was separated by SDS-PAGE and transferred onto a nitrocellulose membrane. A rabbit anti-Caspase 3 antibody (Cell Signaling, 9662), rabbit anti-PARP antibody (Cell Signaling, 9542), and mouse anti-GAPDH antibody (MBL, M171-3) were used as the primary antibodies. A peroxidase-labeled anti-rabbit antibody and anti-mouse antibody (GE Healthcare Biosciences, NA931V, NA934V) were used as the secondary antibodies. For the primary antibodies, the rabbit anti-PARP antibody was diluted 1000-fold, the rabbit anti-Caspase 3 antibody was diluted 1000-fold, and the mouse anti-GAPDH antibody was diluted 3000-fold. Further, the secondary antibody was diluted 5000-fold. Chemi Lumi ONE Ultra (Nacalai Tesque, 11644-40) was used for detection. The detected band strength was analyzed with a lumino image analyzer LAS-4000 mini (Fuji Film) and ImageQuant™ software (GE Healthcare).

With `O=C(Cc1c(F)cccc1Cl)Nc1onc(-c2ccc(F)cc2)c1-c1ccncn1` [AKP-001, 5-[(2-chloro-6-fluorophenyl)acetylamino]-3-(4-fluorophenyl)-4-(4-pyrimidinyl)isoxazole] the N-cadherin immunostaining (corneal endothelium; eyeball instilled 10 times) was “Expression along the cell membrane”, the “Na+/K+-ATPase immunostaining” value (corneal endothelium; eyeball instilled 10 times) was “Expression along the cell membrane” and the ZO-1 immunostaining (corneal endothelium; eyeball instilled 10 times) was “Expression along the cell membrane”. The “actin staining, form of the corneal endothelium” value (corneal endothelium; eyeball instilled 10 times) was “polygonal paving stones”, the “Annexin V and PI staining (cell death)” value (corneal endothelium; rabbit, in vivo) was “Neither staining with Annexin V nor PI was observed” and the “cleaved caspase-3 and PARP expression” value ([1]; 100 ng/ml TGF-β2, 24 hours) was “hardly any”. For the same molecule, the caspase activity ([1]; TGF-β2) was “inhibited”.
